Common to all, as to test: antibacterial and antifungal growth inhibition panel, profiling panel, Idler compounds, first plate, PMBN-permeabilized strains (AID 2061108)
Holding throughout (design): haemolysis: dose or concentration left out as unconfirmed

For test [1], the system named is M. abscessus growth inhibition, 10 uM. The following applies: S. aureus ATCC 9144 growth inhibition; measured here: M. abscessus; at 10 µM.
For test [2], the system named is A. baumannii ATCC 17978 + PMBN growth inhibition, 100 uM. The following applies: A. baumannii plus PMBN growth inhibition, 100 µM; stronger effect = higher value.
Test [3] deals with E. coli NCTC 12923 growth inhibition, 100 uM. The following applies: E. coli NCTC 12923 growth inhibition, 100 µM; stronger effect = higher value.
Test [4] deals with red blood cell haemolysis. The following applies: stronger effect = higher value; dose or concentration not given here.
In test [5] the test system is C. albicans NCPF 3281 growth inhibition, 100 uM. The following applies: S. aureus ATCC 9144 growth inhibition; measured here: C. albicans NCPF 3281; at 100 µM; stronger effect = higher value.
Test [6] deals with M. avium growth inhibition, 10 uM. The following applies: M. avium growth inhibition, 10 µM.
The test system of test [7] is E. coli NCTC 12923 + PMBN growth inhibition, 100 uM. The following applies: S. aureus ATCC 9144 growth inhibition; measured here: E. coli plus PMBN; at 100 µM; stronger effect = higher value.
Test [8] relates to S. aureus ATCC 9144 growth inhibition, 100 uM. The following applies: S. aureus ATCC 9144 growth inhibition; at 100 µM; stronger effect = higher value.
Test [9] relates to A. baumannii ATCC 17978 growth inhibition, 100 uM. The following applies: S. aureus ATCC 9144 growth inhibition; measured here: A. baumannii ATCC 17978; at 100 µM; stronger effect = higher value.

Structures are written as SMILES. Calls of active or inactive are those of the source. The rule behind the calls is not given here.

For `COc1ccc(Nc2nc(-c3ccoc3)cs2)c(C)c1`, the inhibition in [1] is -1.05%; in test [2] it was 16.4%; in [3] it was -15%; in test [5], -127%; in test [6], 0.988%; in test [7] it was -20.1%. Besides, the inhibition in [8] was -12.5% (inactive); in test [9] it was -13.9%. In addition, the haemolysis in test [4] is 0.164%.

As for `O=S(=O)(Nc1ccc(Oc2ccccc2)cc1)c1cccc(C(F)(F)F)c1`, the inhibition was -0.452% in test [1]; 67.9% in test [2]; -5.41% in test [3]; 25.3% in test [5]; 0.528% in [6]; 90% in test [7]. Besides, the inhibition in [8] was 81.9%; in [9] it was 59.2%. Besides, in test [4], the haemolysis is 1.23%.

As for `O=C(Nc1ccc(OC2CCCCC2)cc1)c1ccc(-c2nn[nH]n2)cc1`, the inhibition in test [1] was -1.07%; in test [2] it was 17.1%; in [3], 1.08%; in [5], 6.07%; in test [6] it was -0.389%; in [7] it was 6.17%. Moreover, the inhibition is 7.17% (inactive) in test [8] and -15.8% in test [9]. Besides, the haemolysis in test [4] turned out to be 0.0779%.

With `CC(C)NC(=O)Nc1cccc(C(=O)NC(C)c2cccc(Br)c2)c1` (stereo not drawn), the inhibition in [1] is -1.08%; in test [2], 34.3%; in test [3] it was -0.541%; in [5], 26.3%; in test [6] it was -5.32%; in [7], 28.6%. Further, the inhibition in test [8] is 3.67% (inactive); in test [9], 4.29%. Moreover, the haemolysis in test [4] was -0.0024%.

As for `Nc1ncnc2cc(-c3cccc(S(=O)(=O)NC(=O)C(N)CC(=O)O)c3)sc12` (stereo not drawn), the inhibition in test [1] was -1.16%; in test [2], 9.86%; in test [3] it was 0.676%; in test [5], -64.6%; in [6], 11.9%; in test [7], 8.15%. Besides, the inhibition in test [8] is 15.7% (inactive); in test [9], -7.14%. Besides, the haemolysis in test [4] was -0.194%.

`O=C(N/N=C/C1CCOCC1)c1ccncc1`: the inhibition in test [1] is -2.72%; in test [2] it was 13.2%; in test [3] it was -1.62%; in test [5] it was -26.5%; in [6], 4.75%; in test [7], 1.11%. Further, the figures for the inhibition in test [8] and in test [9] were 16% (inactive) and 0.357%, respectively. In addition, the haemolysis in test [4] turned out to be 1.63%.

In the case of `CN(C)C(=O)c1cncc(-c2cccc(C3(C#N)CC3)c2)c1`, the inhibition in test [1] was -0.0258%; in test [2] it was 23.7%; in [3], -5%; in [5], -67.1%; in test [6], 0.148%; in [7], -3.05%. Besides, the inhibition in [8] was 4.91% (inactive); in test [9] it was 3.37%. Further, in test [4], the haemolysis was 0.107%.

As to `O=C(Nc1nnc2ccccn12)c1ccc2cccc(Cl)c2n1`, the inhibition in test [1] was -0.577%; in test [2], -14.2%; in test [3], -51.6%; in test [5], 25.9%; in [6], -0.879%; in [7], -43.8%. For the same compound, the inhibition in [8] is -41.5% (inactive); in [9], -14.5%. Besides, the haemolysis in [4] worked out at 2.79%.

For `O=C(O)c1cc(-c2ccco2)on1`, the inhibition in [1] was -0.23%; in test [2], 19.4%; in test [3] it was 1.89%; in [5] it was -23.7%; in test [6], -0.19%; in [7] it was 3.29%. The inhibition in test [8] is 20.4% (inactive); in test [9], -3.73%. Besides, the haemolysis in [4] stood at 0.22%.

For `O=C(Nc1ccc(Oc2ccccc2)cc1)c1ccc(-c2nn[nH]n2)nc1`, the inhibition in [1] is -0.682%; in [2], 15.2%; in test [3] it was 0.676%; in test [5], -10.3%; in [6], -0.673%; in [7], 10.6%. Moreover, the inhibition is 15% (inactive) in test [8] and -1.31% in test [9]. Besides, the haemolysis in test [4] was -0.153%.

Regarding `O=C(NC1(c2ccc(Br)cc2)COC1)c1ccc(N2CCOCC2)cc1`, the inhibition in [1] was -1%; in test [2], 17.5%; in test [3] it was -5.27%; in test [5] it was -56.4%; in test [6], -0.734%; in [7], 4.32%. Also, the inhibition was 5.33% (inactive) in test [8] and 1.43% in [9]. Moreover, the haemolysis in test [4] was determined as 0.177%.

Take `Cn1c(=O)oc2cc(S(=O)(=O)NC3CC4CCC3C4)ccc21` (stereo not drawn): the inhibition in [1] was -0.526%; in test [2] it was 25.8%; in test [3], -0.946%; in test [5], -18.8%; in test [6], -0.637%; in test [7] it was -2.35%. The inhibition in test [8] was 17.3% (inactive); in test [9] it was -1.79%. For the same compound, in test [4], the haemolysis was -0.134%.

Take `O=C(Nc1cccc(C(F)(F)F)c1)C(Cl)C(=O)c1ccccc1` (stereo not drawn): the inhibition in test [1] came to 0.0425%; in test [2], 99.6%; in test [3], 34.5%; in [5], 101%; in [6], 1.13%; in [7], 100%. The inhibition is 101% in test [8] and 46.6% in test [9]. Moreover, the haemolysis in test [4] stood at 0.0983%.

As for `CC(C)c1conc1CNc1ccnc(S(=O)(=O)F)c1`, the inhibition in test [1] is -1.22%; in test [2], 13%; in test [3], -1.22%; in test [5], 11.6%; in [6], 0.196%; in [7], -0.37%. Also, the figures for the inhibition in [8] and in test [9] were 16.8% (inactive) and -0.119%, respectively. The haemolysis in test [4] is -0.292%.

For `CC(=O)NCCC(=O)NNC(=O)c1cc(-c2ccccn2)nc2ccccc12`, the inhibition in [1] is -0.278%; in test [2], 4.14%; in [3], -5.54%; in test [5], -14.4%; in test [6], -0.099%; in test [7] it was -9.76%. For the same compound, the inhibition in [8] was -6.67% (inactive); in [9], -4.58%. For the same compound, the haemolysis in test [4] turned out to be 0.542%.

For the compound `Oc1ccc(CN2CCN(c3ccccc3F)CC2)c2cccnc12`, the inhibition in [1] was 0.148%; in [2], 18.1%; in [3] it was -2.43%; in test [5], 95.2%; in test [6], -0.052%; in test [7], 6.46%. Further, the values for the inhibition in test [8] and in [9] were 6.49% and 14.6%, respectively. Besides, in [4], the haemolysis stood at 1.25%.

Consider `CC(Nc1ccc2oc(=O)[nH]c2c1)C(=O)Nc1ccccc1C#N` (stereo not drawn), for which the inhibition in test [1] was -1.22%; in test [2] it was 14.5%; in [3], -4.73%; in test [5], 28%; in [6], 0.0692%; in [7] it was -6.79%. In addition, the figures for the inhibition in [8] and in test [9] were 8.83% (inactive) and -0.833%, respectively. Moreover, the haemolysis in test [4] was 0.275%.

Source of the values: PubChem BioAssay AID2061108 (Research group of Professor Matthew Todd, School of …, 2025).
